Data: US20210180023A1, “CARDIAC REPAIR BY REPROGRAMMING OF ADULT CARDIAC FIBROBLASTS INTO CARDIOMYOCYTES” (The Board of Regents of the University of Texas System, priority 2017, published 2021)

Tests used:
[1] = test system: adult cardiac fibroblasts (CF); assay: Beating cells after 4 weeks of reprogramming; assay type: cell-based, mouse; settings: ZNF281 in presence of 5F
Source text: (§1) ZNF281 enhances cardiac reprogramming of adult fibroblasts. PHF7 and ZNF281 were the two strongest activators identified from retroviral cDNA expression screen with 5F (FIG. 1D; Table S2). PHF7 is only expressed in the male germ line (Yang et al., 2012), whereas ZNF281 has a broad expression pattern with enriched expression in the heart (FIG. 51). The inventors therefore focused their initial attention on ZNF281 and explored its ability to enhance the activity of 5F. They refer to the reprogramming mix of 5F plus ZNF281 as 6F. The inventors validated the results of their screen by assessing GFP and cTnT expression in αMHC-GFP TTFs following 5F and 6F reprogramming after 7 days (FIG. 3A). […] This TTF reprogramming efficiency using 6F is noteworthy when considering the relatively low statistical likelihood of each fibroblast taking up all five or six separate retroviruses encoding the reprogramming factors. The inventors also examined the expression of cardiac and fibroblast transcripts by q-PCR. […] The addition of ZNF281 to 5F increased the expression of GFP and cTnT in αMHC-GFP CFs evaluated by immunocytochemistry after 7 days of reprogramming (FIG. 10A). […]

adult TTFs = assay: q-PCR of marker transcripts in retrovirally reprogrammed adult TTFs; assay type: cell-based, mouse; settings: ZNF281 added to 5F, versus 5F
Protocol: (§2) Retroviruses production, cellular reprogramming and treatment. For retroviruses production, Platinum E cells were seeded into culture dishes (1×10^5 cells/cm2) one day before transfection in DMEM supplemented with 10% FBS and 1% penicillin/streptomycin. Cells reached ˜80% confluency on the day of transfection. DNA plasmids were transfected into Platinum E cells using FuGENE 6 transfection reagent. Twenty-four hours after transfection, wild type or αMHC-GFP tail-tip fibroblasts were seeded into culture dishes or plates that were precoated with SureCoat (Cellutron) for one hour at a density of 6×10^4/cm^2. Forty-eight hours after transfection, polybrene was added to viral medium that was filtered through a 0.45-μm filter at a concentration of […]. The mixture replaced the growth medium in the cell culture plate with tail-tip fibroblasts. The viral infection was serially repeated twice. Twenty-four hours after the second infection, the viral medium was replaced with induction medium, composed of DMEM/199 (4:1), 10% conditioned medium obtained from neonatal rat cardiomyocyte culture, 10% FBS, 5% horse serum, 1% penicillin/streptomycin, 1% nonessential amino acids, 1% essential amino acids, 1% B-27, 1% insulin-selenium-transferrin, 1% vitamin mixture, and 1% sodium pyruvate (Invitrogen). Small molecule treatments were used throughout the reprogramming process […] (Sigma).
Quantitative mRNA measurement. Total RNA was extracted using TRIzol (Invitrogen) according vender's protocol. RNAs were retrotranscribed to cDNA using iScript Supermix (Bio-Rad). qPCR was performed using Kapa Sybr Fast (Kapa Biosystems). mRNA levels were normalized by comparison to Gapdh mRNA.
ZNF281 enhances cardiac reprogramming of adult fibroblasts. PHF7 and ZNF281 were the two strongest activators identified from retroviral cDNA expression screen with 5F (FIG. 1D; Table S2). PHF7 is only expressed in the male germ line (Yang et al., 2012), whereas ZNF281 has a broad expression pattern with enriched expression in the heart (FIG. 51). The inventors therefore focused their initial attention on ZNF281 and explored its ability to enhance the activity of 5F. They refer to the reprogramming mix of 5F plus ZNF281 as 6F. […] The addition of ZNF281 to 5F increased the expression of GFP and cTnT in αMHC-GFP CFs evaluated by immunocytochemistry after 7 days of reprogramming (FIG. 10A). […]
Co-repression of inflammatory genes by ZNF281 and NuRD complex components. […] Addition of NuRD complex subunits also promoted cardiac reprogramming, as measured by flow cytometry using the cardiac markers αMHC-GFP and cTnT (FIG. 5B, FIGS. S2A-B).

[2] = test system: αMHC promoter (αMHC-Luciferase); assay: αMHC-luciferase reporter assay in HEK293 cells; assay type: cell-based
Source text: To determine if ZNF281 could directly activate cardiac genes, the inventors examined the ability of ZNF281 to activate a luciferase reporter controlled by the αMHC promoter (αMHC-Luciferase).

[3] = test system: αMHC-GFP adult cardiac fibroblasts (CF); assay: Flow cytometry (FACS) of αMHC-GFP+ and cTnT+ adult cardiac fibroblasts after reprogramming; assay type: cell-based, mouse; settings: ZNF281 added to 5F, adult CFs, 7 days
Protocol: Flow Cytometry. For flow Cytometry, cells were trypsinized and fixed with fixation buffer (BD Bioscience) for 15 min on ice. Fixed cells were washed with Perm/Wash buffer (BD Bioscience) for three times. Washed cells were incubated with mouse monoclonal anti-cardiac Troponin T (cTnT) antibody (Thermo Scientific) at 1:200 dilution and Rabbit anti-GFP antibody (Thermo Scientific) at 1:200 dilution in Perm/Wash buffer for 1 hr on ice. Cells then were washed with Perm/Wash buffer for three times followed by incubation with donkey anti-mouse Alexa fluor 647 (Invitrogen) at 1:200 and goat anti-rabbit Alexa fluor 488 at 1:200 (Invitrogen). Cells were washed with Perm/Wash buffer, and then analyzed using FACS Caliber (BD Sciences) and FlowJo software.
as §1

adult αMHC-GFP TTFs = assay: Flow cytometry of αMHC-GFP+ and cTnT+ TTFs after retroviral reprogramming; assay type: cell-based, mouse; settings: ZNF281 added to 5F (6F), 7 days
Protocol: as §2
Flow Cytometry. For flow Cytometry, cells were trypsinized and fixed with fixation buffer (BD Bioscience) for 15 min on ice. Fixed cells were washed with Perm/Wash buffer (BD Bioscience) for three times. […] Cells were washed with Perm/Wash buffer, and then analyzed using FACS Caliber (BD Sciences) and FlowJo software.
ZNF281 enhances cardiac reprogramming of adult fibroblasts. […] The addition of ZNF281 to 5F increased the expression of GFP and cTnT in αMHC-GFP CFs evaluated by immunocytochemistry after 7 days of reprogramming (FIG. 10A). […]

Zinc finger protein 281 [ZNF281]
increase in the number of beating cells [1]: 2 fold | decrease of Col1a2 expression (adult TTFs): ~30% | decrease of Sox9 expression (adult TTFs): ~60% | increase of Actc1 expression (adult TTFs): ~20 fold | increase of Myh6 expression (adult TTFs): ~120 fold | activation of αMHC-Luciferase reporter ([2]; ZNF281 alone): ~7 fold | activation of αMHC-Luciferase reporter ([2]; ZNF281 co-expressed with GATA4): ~15 fold | cTnT+ iCMs [3]: ~45% | αMHC-GFP+ iCMs [3]: ~25% | αMHC-GFP+/cTnT+ iCMs [3]: ~21% | cTnT+ TTFs (adult αMHC-GFP TTFs): ~45% | αMHC-GFP+ TTFs (adult αMHC-GFP TTFs): ~33% | αMHC-GFP+/cTnT+ TTFs (adult αMHC-GFP TTFs): ~28%
